# In publication PMC11154582, “Modeling the Blood-Brain Barrier Permeability of Potential Heterocyclic Drugs via Biomimetic IAM Chromatography Technique Combined with QSAR Methodology” (Molecules, 2024):
# Like-named read-outs stand apart in the source and are kept apart here.
# Legend:
# [1] = parameters: method as in ref [21,22] (a number printed in a supplementary file, which may have a reference list of its own: not looked up in the article's list); conditions: supplement ref [21,22]; cited from earlier work
# [2] = parameters: method as in ref [8,16] (a number printed in a supplementary file, which may have a reference list of its own: not looked up in the article's list); conditions: supplement ref [8,16]; cited from earlier work
# [3] = parameters: method as in ref [22] (a number printed in a supplementary file, which may have a reference list of its own: not looked up in the article's list); conditions: supplement ref [22]; cited from earlier work
# [4] = test system: hepatic adenosine A2A receptors; parameters: method as in ref [22] (a number printed in a supplementary file, which may have a reference list of its own: not looked up in the article's list); conditions: antagonizes stimulatory effect of a selective A2A receptor agonist; supplement ref [22]; cited from earlier work
# [5] = IAM column, cited from earlier work
# [6] = test system: bacteria; parameters: method as in ref [3] (a number printed in a supplementary file, which may have a reference list of its own: not looked up in the article's list); conditions: supplement ref [3], cited from earlier work
# [7] = Biomimetic IAM chromatography (log kw, IAM); type: physicochemical; conditions: IAM.PC.DD2 column, buffered acetonitrile, pH 7.4, 25 °C, extrapolated to buffer
# Method: High performance liquid chromatography (HPLC) measurements were performed on a Shimadzu Vp liquid chromatographic system (Shimadzu, Izabelin, Poland). This instrument was equipped with LC 10AT pump, SPD 10A ultraviolet-visible detector, SCL 10A system controller, CTO-10 AS chromatographic oven, and a Rheodyne injector valve with a 20 μL loop. As the stationary phase Regis IAM.PC.DD2 column, 100 × 4.6 mm i.d., 10 μm (Morton Grove, IL, USA) was applied.
# Buffered acetonitrile mixtures were used as effluents. Acetonitrile concentration, expressed as a volume fraction, was varied within a range from 0.2 to 0.5, with a constant step of 0.1. The buffer was prepared from 0.01 mol L^−1 solutions of Na2HPO4 and citric acid, and a pH value of 7.4 was fixed before mixing with an organic modifier. The flow rate was 1.3 mL min^−1. Each compound sample was dissolved in acetonitrile to obtain a concentration of 0.005 mg mL^−1, and each solute peak was detected under ultraviolet light at a wavelength of λmax = 254 nm. Each measurement was performed at a constant temperature (25 °C) at least three times. The dead time values were measured from sodium chloride peaks.
# From among 126 heterocyclic compounds evaluated in this work (Table 1), 89 structures have been investigated previously on the IAM column: these are molecules from groups III, IV, V, VI, VII, VIII, IX, XI, XIII, and XV [21, 22, 23]. The remaining ones, i.e., 37 compounds from groups I, II, X, XII and XIV, were tested in this study for the first time using the biomimetic IAM chromatographic technique. To calculate the log kw values (i.e., the logarithms of retention parameter in the buffer as the mobile phase), the retention parameters, logs k (k = (tr − t0)/t0; where tr is the solute retention time, and t0 is a dead time), that were measured for all tested compounds, were used according to Soczewiński-Wachtmeister’s equation (Equation (5)): (5) log k=logtr−t0/t0=log kw−sφ where φ denotes the volume fraction of acetonitrile as organic modifier in the mobile phase, and kw means the retention parameter corresponding to buffer as the mobile phase. The log kw values were evaluated as linear regression coefficients (Table 2).
# [8] = test system: Pseudomonas aeruginosa; parameters: method as in ref [3] (a number printed in a supplementary file, which may have a reference list of its own: not looked up in the article's list); conditions: versus chloramphenicol and ampicillin; supplement ref [3]; cited from earlier work
# [9] = parameters: method as in ref [19] (a number printed in a supplementary file, which may have a reference list of its own: not looked up in the article's list); conditions: supplement ref [19]; cited from earlier work
# [10] = test system: Staphylococcus aureus ATCC 25923; parameters: method as in ref [3] (a number printed in a supplementary file, which may have a reference list of its own: not looked up in the article's list); conditions: versus ampicillin; supplement ref [3]; cited from earlier work
compound,measurement,setting,value
COc1ccc(N2CCn3c2nnc(C(=O)NN)c3=O)cc1 [Compound 53],antiradical activity,[1],antiradical
same,analgesic activity,[2],analgesic
same,scavenging of the superoxide anion radical,[3],able to scavenge
same,action towards hepatic adenosine A2A receptors,[4],antagonistic
same,"log kw, IAM",[5]; ref [21],−0.10
Clc1ccc(OCc2nnc3n2CCN3c2ccc(Cl)c(Cl)c2)c(Cl)c1 [Compound 13],selectivity of antibacterial activity,[6]; Gram-negative strains,selective activity on Gram-negative strains of bacteria
same,antibacterial activity,[6],antibacterial
same,"log kw, IAM",[7],2.91
same,antibacterial potency against Pseudomonas aeruginosa ATCC 25923,[8],superior
CCc1nnc2n(c1=O)CCN2c1ccc(Cl)c(Cl)c1 [Compound 28],antiviral activity,[9],antiviral
same,"log kw, IAM",[5]; ref [23],1.85
Cc1ccc(N2CCn3c(COc4ccc(Cl)cc4C)nnc32)cc1 [Compound 9],antibacterial activity,[6],antibacterial
same,antibacterial activity against Staphylococcus aureus ATCC 25923,[10],comparable
same,"log kw, IAM",[7],1.95
